Test system: C57BL/6J mice
Assay: Hot water tail immersion test, compound alone (intrinsic antinociception)
Format: in vivo
Settings: for effect on tail flick latency vs vehicle: n = 8 per group
Description: After evaluating EU93-108 in vitro, we next evaluated a panel of GluN2B inhibitors for their ability to produce an antinociceptive effect using a classical model of pain perception, determination of tail flick latency for mice when their tails are placed in hot water (Figures 4 and 5). The hot water tail immersion test is a well-validated method of assessing reflexive (i.e., spinal) pain-like response in rodents.[80]−[83] We interpret a drug-induced increase in tail flick latency as analgesia.
The inhibitors were injected i.p. 30 min prior to a hot water tail immersion test. Four treatment groups and one control group were used (n = 8 per group) where the control group received vehicle (10% DMSO, 20% PEG, 2% DMA in water) and groups 1 through 4 were randomly assigned one dose of the appropriate compound.
All animal studies performed at Emory have been approved by the Institutional Animal Care and Use Committee at Emory University. Male and female C57BL/6J mice weighing between 20 and 30 g were housed five per cage and given ad libitum access to food and water. The mice were 8–10 weeks of age at the time of experimentation. Animal holding rooms operated on a 12 h dark/light cycle with the dark cycle from 7:00 pm to 7:00 am. Mice were allowed to acclimate in cages for one week after arrival. The mice were handled regularly and habituated to scruffing and cloth restraint for 3–5 days prior to experimentation.
Mouse weights were recorded on the day of each experiment. Mice were given the appropriate treatment(s) 30 min prior to testing. All injection volumes were 10 mL/kg (e.g., 350 μL for a 35 g mouse). For the tail immersion experiments, each mouse was restrained with a Wypall cloth, leaving the tail exposed. The distal two-thirds of the tail was lowered into a sous vide water bath set to 48 °C, and a stopwatch with a resolution of 0.01 s was used to record the time elapsed between immersion and tail flick. Three recordings were taken for each mouse, and each data point is expressed as the mean of the three recordings. A cut-off time of 25 s was implemented to prevent tissue damage or scarring. For each experiment, the identities of the doses were coded by an independent researcher to ensure blinding. The identities were not decoded until the data were analyzed.
Prism 9.3.1 software (GraphPad, San Diego, CA) was used for all data analysis and visualization. Data for intrinsic antinociception was analyzed using one-way ANOVA and Dunnett’s post hoc test for multiple comparisons where each group was compared to vehicle. Data for acute morphine potentiation experiments were analyzed using one-way ANOVA and Tukey’s post hoc test for multiple comparisons was also used, where each group mean was compared to the mean of every other group. Data for tolerance experiments were analyzed using repeated measures two-way ANOVA and Bonferroni post hoc analysis. Data are presented as mean ± SEM and p < 0.05 constitutes significance.

[1] = male mice, i.p. 30 min prior to test

CS(=O)(=O)Nc1ccc(OC[C@@H](O)CN2CCN(c3ccc(F)c(F)c3)CC2)cc1 [EU93-108, (S)-N-(4-(3-(4-(3,4-Difluorophenyl)piperazin-1-yl)-2-hydroxypropoxy)phenyl)methanesulfonamide]
ED50 (Mus musculus, ip, male mice, i.p., fitted dose–response curve, estimated, read-out: ED50 (tail flick latency), EU93-108 alone): 9.7 mg/kg
dose at which significant increase in latency was achieved (female mice, i.p.): 60 mg/kg
effect on tail flick latency vs vehicle (female mice, i.p. 30 min prior to test): increased latency, but only at 60 mg/kg
mean latency increase [1]: 16 s
effect on tail flick latency vs vehicle [1]: significant increases in latency at the two highest doses tested (30 and 60 mg/kg)
dose at which significant latency increases were achieved (male mice, i.p., lowest significant dose): 30 mg/kg
